Test results published in patent US20230011869A1 (Hoffmann-La Roche Inc., priority 2018, published 2023).
Structures can show the parent of a compound that is named as a salt.

Test system: Acinetobacter baumannii ATCC17961
Experiment: Antimicrobial susceptibility testing: 90% growth inhibitory concentration (IC90) determination, Iso-Sensitest broth
Type: cell-based
Settings: Acinetobacter baumannii, ATCC17961, 16 h, 90% growth inhibitory concentration, Acinetobacter baumannii ATCC17961, Iso-Sensitest broth, OD 600 nm over 16 h; read-out: ATCC17961 IC90
Experimental: Antimicrobial Susceptibility Testing:
90% Growth Inhibitory Concentration (IC90) Determination
The in vitro antimicrobial activity of the compounds was determined according to the following procedure:
The assay used a 10-points Iso-Sensitest broth medium to measure quantitatively the in vitro activity of the compounds against Acinetobacter baumannii ATCC17978 and Acinetobacter baumannii ATCC17961.
Stock compounds in DMSO were serially twofold diluted (e.g. range from 50 to 0.097 μM final concentration) in 384 wells microtiter plates and inoculated with 49 μl the bacterial suspension in Iso-Sensitest medium to have a final cell concentration of 5×10^(5) CFU/ml in a final volume/well of 50 ul/well. Microtiter plates were incubated at 35±2° C.
Bacterial cell growth was determined with the measurement of optical density at λ=600 nm each 20 minutes over a time course of 16 h. Growth inhibition was calculated during the logarithmic growth of the bacterial cells with determination of the concentration inhibiting 50% (IC50) and 90% (IC90) of the growth.
Table 1 provides the 90% growth inhibitory concentrations (IC90) in micromoles per liter of the compounds of present invention obtained against the strain Acinetobacter baumannii ATCC17978 and Acinetobacter baumannii ATCC17961.

| SMILES | IC90 [nM] |
| --- | --- |
| Cc1cc(Nc2nccn3c(-c4ccc(OCC#N)c(F)c4F)cnc23)ccc1C(=O)N1CCN(C(=O)[C@@H]2CCNC2)CC1 [Example 198, 2-[2,3-difluoro-4-[8-[3-methyl-4-[4-[(3R)-pyrrolidine-3-carbonyl]piperazine-1-carbonyl]anilino]imidazo[1,2-a]pyrazin-3-yl]phenoxy] acetonitrile formate] | 39 |
| Cc1cc(Nc2nccn3c(-c4ccc(OCC#N)c(F)c4F)cnc23)ccc1C(=O)N1CCN(C(=O)[C@@H]2C[C@@H](O)CN2)CC1 [Example 200, 2-[2,3-difluoro-4-[8-[4-[4-[(2S,4R)-4-hydroxypyrrolidine-2-carbonyl]piperazine-1-carbonyl]-3-methyl-anilino]imidazo[1,2-a]pyrazin-3-yl]phenoxy] acetonitrile formate] | 67 |
| COc1ccc(-c2cnc3c(Nc4ccc(C(=O)N5CCN(C(=O)C6(O)CCNCC6)CC5)c(C)c4)nccn23)c(F)c1F [Example 204, [4-[[3-(2,3-difluoro-4-methoxy-phenyl)imidazo[1,2-a]pyrazin-8-yl]amino]-2-methyl-phenyl]-[4-(4-hydroxypiperidine-4-carbonyl)piperazin-1-yl]methanone hydrochloride] | 46 |
| Cc1cc(Nc2nccn3c(-c4ccc(OCC#N)c(F)c4F)cnc23)ccc1C(=O)N1CCN(C(=O)C2(O)CCNCC2)CC1 [Example 206, 2-[2,3-difluoro-4-[8-[4-[4-(4-hydroxypiperidine-4-carbonyl)piperazine-1-carbonyl]-3-methyl-anilino]imidazo[1,2-a]pyrazin-3-yl]phenoxy] acetonitrile formate] | 36 |
| Cc1cc(Nc2nccn3c(-c4ccc(OCC#N)c(F)c4Cl)cnc23)ccc1C(=O)N1CCN(C(=O)C2CCNCC2)CC1 [Example 209, 2-[3-chloro-2-fluoro-4-[8-[3-methyl-4-[4-(piperidine-4-carbonyl)piperazine-1-carbonyl]anilino]imidazo[1,2-a]pyrazin-3-yl]phenoxy] acetonitrile formate] | 68 |
| Cc1cc(Nc2nccn3c(-c4ccc(OCC#N)c(F)c4Cl)cnc23)ccc1C(=O)N1CCN(C(=O)[C@@H]2C[C@@H](O)CN2)CC1 [Example 211, 2-[3-chloro-2-fluoro-4-[8-[4-[4-[(2S,4R)-4-hydroxypyrrolidine-2-carbonyl]piperazine-1-carbonyl]-3-methyl-anilino]imidazo[1,2-a]pyrazin-3-yl]phenoxy] acetonitrile formate] | 42 |
| Cc1cc(Nc2nccn3c(-c4ccc(OCC#N)c(F)c4Cl)cnc23)ccc1C(=O)N1CCN(C(=O)[C@@H]2CCNC2)CC1 [Example 212, 2-[3-chloro-2-fluoro-4-[8-[3-methyl-4-[4-[(3R)-pyrrolidine-3-carbonyl]piperazine-1-carbonyl]anilino]imidazo[1,2-a]pyrazin-3-yl]phenoxy] acetonitrile formate] | 34 |
| Cc1cc(Nc2nccn3c(-c4ccc(OCC#N)c(F)c4Cl)cnc23)ccc1C(=O)N1CCN(C(=O)[C@H]2CCNC2)CC1 [Example 213, 2-[3-chloro-2-fluoro-4-[8-[3-methyl-4-[4-[(3S)-pyrrolidine-3-carbonyl]piperazine-1-carbonyl]anilino]imidazo[1,2-a]pyrazin-3-yl]phenoxy] acetonitrile formate] | 33 |
| Cc1cc(Nc2nccn3c(-c4ccc(OCC#N)c(F)c4Cl)cnc23)ccc1C(=O)N1CCN(C(=O)C2(O)CCNCC2)CC1 [Example 214, 2-[3-chloro-2-fluoro-4-[8-[4-[4-(4-hydroxypiperidine-4-carbonyl)piperazine-1-carbonyl]-3-methyl-anilino]imidazo[1,2-a]pyrazin-3-yl]phenoxy] acetonitrile formate] | 41 |

Second part, the compound after the results:

| IC90 [nM] | SMILES |
| --- | --- |
| 64 | Cc1cc(Nc2nccn3c(-c4ccc(OCC#N)c(F)c4Cl)cnc23)ccc1C(=O)N1CCN(C(=O)[C@H]2CCNC[C@@H]2O)CC1 [Example 220, 2-[3-chloro-2-fluoro-4-[8-[4-[4-[(3R,4S)-3-hydroxypiperidine-4-carbonyl]piperazine-1-carbonyl]-3-methyl-anilino]imidazo[1,2-a]pyrazin-3-yl]phenoxy] acetonitrile formate] |
| 59 | Cc1cc(Nc2nccn3c(-c4ccc(OCC#N)c(F)c4Cl)cnc23)ccc1C(=O)N1CCN(C(=O)[C@@H]2CCNC[C@H]2O)CC1 [Example 221, 2-[3-chloro-2-fluoro-4-[8-[4-[4-[(3S,4R)-3-hydroxypiperidine-4-carbonyl]piperazine-1-carbonyl]-3-methyl-anilino]imidazo[1,2-a]pyrazin-3-yl]phenoxy] acetonitrile formate] |
| 38 | Cc1cc(Nc2nccn3c(-c4ccc(OCC#N)c(F)c4Cl)cnc23)ccc1C(=O)N1CCN(C(=O)[C@H]2CCNC[C@H]2O)CC1 [Example 222, 2-[3-chloro-2-fluoro-4-[8-[4-[4-[(3S,4S)-3-hydroxypiperidine-4-carbonyl]piperazine-1-carbonyl]-3-methyl-anilino]imidazo[1,2-a]pyrazin-3-yl]phenoxy] acetonitrile formate] |
| 58 | COc1ccc(-c2cnc3c(Nc4ccc(C(=O)N5CCN(C(=O)[C@@H]6C[C@H](O)CN6)CC5)c(C)c4)nccn23)c(F)c1F [Example 227, [4-[[3-(2,3-difluoro-4-methoxy-phenyl)imidazo[1,2-a]pyrazin-8-yl]amino]-2-methyl-phenyl]-[4-[(2S,4S)-4-hydroxypyrrolidine-2-carbonyl]piperazin-1-yl]methanone] |
| 44 | CC[C@@]1(O)CN[C@H](C(=O)N2CCN(C(=O)c3ccc(Nc4nccn5c(-c6ccc(OCC#N)c(F)c6F)cnc45)cc3C)CC2)C1 [Example 229, 2-[4-[8-[4-[4-[(2S,4S)-4-ethyl-4-hydroxy-pyrrolidine-2-carbonyl]piperazine-1-carbonyl]-3-methyl-anilino]imidazo[1,2-a]pyrazin-3-yl]-2,3-difluoro-phenoxy]acetonitrile formate] |
| 53 | Cc1cc(Nc2nccn3c(-c4ccc(OCC#N)c(F)c4F)cnc23)ccc1C(=O)N1CCN(C(=O)[C@@H]2C[C@@](C)(O)CN2)CC1 [Example 231, 2-[2,3-difluoro-4-[8-[4-[4-[(2S,4R)-4-hydroxy-4-methyl-pyrrolidine-2-carbonyl]piperazine-1-carbonyl]-3-methyl-anilino]imidazo[1,2-a]pyrazin-3-yl]phenoxy] acetonitrile formate] |
| 190 | COc1ccc(-c2cnc3c(Nc4ccc(C(=O)N5CCN(C(=O)[C@H]6NC[C@H](O)[C@@H]6O)CC5)c(C)c4)nccn23)cc1F [Example 233, ((2S,3R,4S)-3,4-dihydroxypyrrolidin-2-yl)(4-(4-((3-(3-fluoro-4-methoxyphenyl)imidazo[1,2-a]pyrazin-8-yl)amino)-2-methylbenzoyl)piperazin-1-yl)methanone hydrochloride] |
| 133 | COc1ccc(-c2cnc3c(Nc4ccc(C(=O)N5CCN(C(=O)[C@H]6NC[C@H](O)[C@@H]6O)CC5)c(C)c4)nccn23)c(F)c1F [Example 234, (4-(4-((3-(2,3-difluoro-4-methoxyphenyl)imida-zo[1,2-a]pyrazin-8-yl)amino)-2-methylbenzoyl)piper-azin-1-yl)((2S,3R,4S)-3,4-dihydroxypyrrolidin-2-yl)methanone] |
